From patent US8785452B2, “Anti-infective compounds” (priority 2008, dated 2014)
Read-outs that look alike come from different tables or passages of the source.

What was measured:
[1] = tested on: M. tuberculosis H37Rv-GFP; experiment: microbe, parasite or virus in culture; format: cell-based, Mycobacterium tuberculosis; details: for inhibition at 20 µM: Mycobacterium tuberculosis, H37RV, Macrophage
M. tuberculosis H37Rv = experiment: Conventional CFU determination in infected macrophages; format: cell-based, Mycobacterium tuberculosis; details: human and mouse cells; seven days after infection; 232 at 20 μM
Raw264.7 cells [2] = details: mouse, 5 days; for Primary QIM CellNb: 20 μM
Raw264.7 cells [3] = experiment: Cell number (CellNb) from image analysis of the phenotypic cell-based assay; details: for Primary QIM CellNb: primary screen, 20 μM
[4] = confirmation, 20 uM, read-out: QIM Confirm % Inhibition 20 uM
[5] = primary screen, 20 μM, read-out: Primary QIM % Inhibition

SMILES	bacterial load and host cell abundance versus DMSO control [1]	decrease in the number of CFUs (M. tuberculosis H37Rv)	melting point	inhibition at 20 µM [1, 4] [%]	inhibition at 20 µM [1, 5] [%]	Primary QIM CellNb (Raw264.7 cells [2])	Primary QIM CellNb (Raw264.7 cells [3])	QIM Confirm CellNb 2 uM (Raw264.7 cells [3]; confirmation, 2 uM)	QIM Confirm CellNb 20 uM (Raw264.7 cells [2]; 20 uM)
Cc1cccn2c(=O)c(CO)c(Nc3cccc(Cl)c3)nc12 [compound 232, 2-(3-Chlorophenylamino)-3-(hydroxymethyl)-9-methyl-4H-pyrido[1,2-a]pyrimidin-4-one]	harbored fewer bacteria compared to DMSO control and were more abundant	ten-fold decrease	–	–	–	–	–	–	–
CS(=O)(=O)O[C@H]1CCN(C(=O)c2cc([N+](=O)[O-])cc([N+](=O)[O-])c2)C1	–	–	138 to 140 °C	–	–	–	–	–	–
CNC(=O)c1c(Nc2ccc(F)c(Cl)c2)nc2c(OC)cccn2c1=O	–	–	218 °C (dec.)	–	–	–	–	–	–
O=[N+]([O-])c1cc(/C=N/c2ccc(S(=O)(=O)NC3NC=CS3)cc2)c2c(c1)COCO2 (stereo not drawn) [IPK 000 057 92]	–	–	–	27.2	-30.7	23.0	165.3	–	–
CCCOC(=O)C1=C(C)NC2=C(C(=O)CC(c3ccccc3)C2)C1c1cccc(O)c1 (stereo not drawn) [IPK 000 085 99]	–	–	–	49.5	37.1	4.5	67.3	–	–
O=C(Nc1cc(Cl)cc(Cl)c1)c1cc([N+](=O)[O-])ccc1Cl [IPK 000 049 20]	–	–	–	88.6	71.5	54.8	155.5	–	–
NNC(=O)c1ccc(COc2ccccc2Cl)o1 [IPK 000 123 03]	–	–	–	72.1	78.3	12.0	540.8	–	–
CCCCOc1ccc(/C=N/NC(=O)c2ccncc2)cc1 [IPK 000 043 06]	–	–	–	98	81.4	98.1	200.3	–	–
COc1cccn2c(=O)c(CO)c(Nc3ccc(F)c(F)c3)nc12	–	–	231 °C (dec.)	–	–	–	–	–	–
CN1CCN(NC(=O)c2ccc(COc3ccc(Cl)cc3Cl)o2)CC1 [IPK 000 123 92]	–	–	–	15.4	45.3	32.3	135.8	–	–
COc1cccc(/C=N/NC(=O)c2ccncc2)c1O [IPK 000 043 08]	–	–	–	95.1	87.3	102.7	255.5	–	–
O=C(NC12CC3CC(CC(C3)C1)C2)c1ccc([N+](=O)[O-])cc1 [IPK 000 113 77]	–	–	–	74.3	60.9	48.4	319.8	–	–
CCc1ccc(/C=C(/C#N)C(=O)OC(C)C)s1 [IPK 000 107 90]	–	–	–	89.6	79.3	52.8	494.3	–	–
O=C(Nc1sc2c(c1C(=O)Nc1ccccc1)CCC2)c1cccs1 [IPK 000 042 30]	–	–	–	95.9	73.7	75.2	193.8	–	–
CCCC(=O)/N=C(\N)Nc1nc2ccccc2o1 [IPK 000 122 62]	–	–	–	65.1	62.8	26.2	131.5	–	–
O=[N+]([O-])c1ccc(O)c(/C=N/c2ccccc2O)c1 [IPK 000 044 20]	–	–	–	30.7	-67.5	6.3	135.0	–	–
Cc1ccc(NC(=O)c2c(NC(=O)C(F)(F)F)sc3c2CCC3)c(C)c1 [IPK 000 077 22]	–	–	–	46.6	-33	33.3	84.5	–	–
Oc1ccccc1/N=C/c1cc(Br)cc(Br)c1O [IPK 000 044 41]	–	–	–	29.9	-120	34.0	126.8	–	–
CC(/C=N/NC(=O)c1cccc(F)c1)c1ccccc1 (stereo not drawn) [IPK 000 104 13]	–	–	–	89.6	68.8	25.2	115.8	–	–
O=C(N/N=C/c1ccc([N+](=O)[O-])cc1)c1ccncc1 [IPK 000 041 48]	–	–	–	88.4	84.5	97.5	315.3	–	–
CCOc1ccccc1/C=N/NC(=O)c1ccncc1 [IPK 000 043 27]	–	–	–	102	47.6	105.2	125.8	–	–
CCC(C)c1ccc(NC(=O)c2ccc(Cl)c([N+](=O)[O-])c2)cc1 (stereo not drawn) [IPK 000 048 71]	–	–	–	70	62.1	22.6	56.5	–	–
O=C(O)COc1ccccc1/C=N/NC(=O)c1ccncc1 [IPK 000 105 19]	–	–	–	106	98.7	104.1	374.3	566.4	–
O=C(Nc1nccs1)c1ccc(COc2ccc(Cl)cc2)o1 [IPK 000 124 54]	–	–	–	75	75.5	16.4	503.3	–	–
O=S(=O)(Nc1nccs1)c1ccc(/N=C/c2ccccc2O)cc1 [IPK 000 079 88]	–	–	–	28.1	-69.2	7.5	181.8	–	–
O=C(N/N=C/c1ccccc1Cl)c1ccncc1 [IPK 000 043 05]	–	–	–	104	97.1	101.6	228.8	–	80.2
O=C(Nc1cccc(C(F)(F)F)c1)Nc1ccc(Cl)c(Cl)c1 [IPK 000 052 50]	–	–	–	76.4	45	10.8	44.0	–	–
